From patent publication USRE48461E1, “Modulation of androgen receptor expression” (Ionis Pharmaceuticals, Inc., priority 2012, dated 2021)

Columns and labels:
Assay type in all cases: cell-based, human
[1] = tested on: C4-2B cells; assay: C4-2B cell proliferation, ASO in combination with MDV3100 (Example 21); conditions: for Proliferation (% untreated control) in C4-2B without MDV-3100: 5 days
Experimental: (§1) C4-2B cells were plated at 1,000 cells per well. […] ISIS 549148 was included as a negative control. […] After a treatment period of 5 days, the proliferative capacity of the cancer cells was measured with CellTiter 96® AQueous One Solution Cell Proliferation kit (Promega), following the manufacturer's instructions. […]

[2] = tested on: C4-2 cells; assay: C4-2 cell proliferation (complete or CSS+DHT medium); conditions: 5 days; for Proliferation (% untreated control): C4-2 cells
Experimental: After a treatment period of 5 days in complete medium or CSS+1 nM DHT medium, the proliferative capacity of the cancer cells was measured with using CellTiter 96® AQueous One Solution or CellTiter-Glo® Cell Proliferation kit (Promega), following the manufacturer's instructions. […] The proliferative capacity of cells cultured in CSS medium without DHT is 17% of untreated control levels.

[3] = tested on: prostate-specific antigen (PSA) mRNA; assay: Time-course PSA expression in C4-2B cells
Experimental: C4-2B cells were plated at 1,000 cells per well in complete medium. […] ISIS 549148 was included as a negative control. […] After a treatment period of 8 hours, 24 hours, and 48 hours, AR expression was measured with primer probe set hAR-LTS00943. Results are presented in Tables 70-72 as percent expression of AR, relative to non-treated cells.
Expression analysis of prostate-specific antigen (PSA) and TMPRSS2 were also analyzed. Results are presented in Tables 73-75 as percent inhibition of PSA expression and Tables 76-78 as percent inhibition of TMPRSS2 expression, relative to non-treated cells.

[4] = tested on: LNCaP cells; assay: LNCaP cell proliferation, ASO in combination with MDV3100 (Example 20)
Experimental: as §1, with “LNCaP” for “C4-2B”, “One or CellTiter-Glo®” for “One”

[5] = ASO dose 0.04 μM + 0.08 μM MDV-3100
[6] = ASO dose 0.04 μM + 0.4 μM MDV-3100

TGATTTAATGGTTGCA [ISIS 569236] (cEt/MOE gapmer chemistry, further chemistry not given here) [targets intron 1]
Proliferation (% untreated control) in C4-2B with 0.08 μM MDV-3100 [1, 5]: 79 % untreated control
Proliferation (% untreated control) in C4-2B with 0.4 μM MDV-3100 [1, 6]: 63 % untreated control
Proliferation (% untreated control) in C4-2B with 2.0 μM MDV-3100 ([1]; ASO dose 0.04 μM + 2.0 μM MDV-3100): 45 % untreated control
Proliferation (% untreated control) in C4-2B with […] MDV-3100 ([1]; ASO dose 0.04 μM + […] MDV-3100): 74 % untreated control
Proliferation (% untreated control) in C4-2B without MDV-3100 ([1]; ASO dose 0.04 μM): 72 % untreated control
Proliferation (% untreated control) in C4-2B with 0.08 μM MDV-3100 ([1]; ASO dose 0.08 μM + 0.08 μM MDV-3100): 89 % untreated control
Proliferation (% untreated control) in C4-2B with 0.4 μM MDV-3100 ([1]; ASO dose 0.08 μM + 0.4 μM MDV-3100): 90 % untreated control
Proliferation (% untreated control) in C4-2B with 2.0 μM MDV-3100 ([1]; ASO dose 0.08 μM + 2.0 μM MDV-3100): 44 % untreated control
Proliferation (% untreated control) in C4-2B with […] MDV-3100 ([1]; ASO dose 0.08 μM + […] MDV-3100): 107 % untreated control
Proliferation (% untreated control) in C4-2B without MDV-3100 ([1]; ASO dose 0.08 μM): 100 % untreated control
Proliferation (% untreated control) in C4-2B with 0.08 μM MDV-3100 ([1]; ASO dose 0.2 μM + 0.08 μM MDV-3100): 51 % untreated control
Proliferation (% untreated control) in C4-2B with 0.4 μM MDV-3100 ([1]; ASO dose 0.2 μM + 0.4 μM MDV-3100): 48 % untreated control
Proliferation (% untreated control) in C4-2B with 2.0 μM MDV-3100 ([1]; ASO dose 0.2 μM + 2.0 μM MDV-3100): 48 % untreated control
Proliferation (% untreated control) in C4-2B with […] MDV-3100 ([1]; ASO dose 0.2 μM + […] MDV-3100): 65 % untreated control
Proliferation (% untreated control) in C4-2B without MDV-3100 ([1]; ASO dose 0.2 μM): 63 % untreated control
Proliferation (% untreated control) in C4-2B with 0.08 μM MDV-3100 ([1]; ASO dose 1.0 μM + 0.08 μM MDV-3100): 43 % untreated control
Proliferation (% untreated control) in C4-2B with 0.4 μM MDV-3100 ([1]; ASO dose 1.0 μM + 0.4 μM MDV-3100): 39 % untreated control
Proliferation (% untreated control) in C4-2B with 2.0 μM MDV-3100 ([1]; ASO dose 1.0 μM + 2.0 μM MDV-3100): 46 % untreated control
Proliferation (% untreated control) in C4-2B with […] MDV-3100 ([1]; ASO dose 1.0 μM + […] MDV-3100): 55 % untreated control
Proliferation (% untreated control) in C4-2B without MDV-3100 ([1]; ASO dose 1.0 μM): 51 % untreated control
synergy with MDV3100 ([1]; C4-2B cells): synergistic with MDV3100
cell proliferation inhibited, combination ([1]; C4-2B cells, 0.2 μM ASO in combination with 0.08 μM MDV3100): 52%
inhibited cell proliferation, ASO alone ([1]; C4-2B cells, ASO alone at 0.2 μM): 37%
Proliferation (% untreated control) ([2]; CSS + DHT medium, 0.04 μM): 99 % untreated control
Proliferation (% untreated control) ([2]; CSS + DHT medium, 0.2 μM): 99 % untreated control
Proliferation (% untreated control) ([2]; CSS + DHT medium, 1 μM): 88 % untreated control
Proliferation (% untreated control) ([2]; CSS + DHT medium, 5.0 μM): 51 % untreated control
Proliferation (% untreated control) ([2]; complete medium, 0.04 μM): 103 % untreated control
Proliferation (% untreated control) ([2]; complete medium, 0.2 μM): 81 % untreated control
Proliferation (% untreated control) ([2]; complete medium, 1 μM): 57 % untreated control
Proliferation (% untreated control) ([2]; complete medium, 5.0 μM): 58 % untreated control
proliferation of C4-2 cells ([2]; complete medium or CSS+1 nM DHT): reduced proliferation of the cells in a dose dependent manner compared to the control
Percent inhibition of PSA expression compared to the control group in 8 hours ([3]; 0.04 μM): 18%
Percent inhibition of PSA expression compared to the control group in 24 hours ([3]; 0.04 μM): 10%
Percent inhibition of PSA expression compared to the control group in 48 hours ([3]; 0.04 μM): 4%
Percent inhibition of PSA expression compared to the control group in 8 hours ([3]; 0.2 μM): 3%
Percent inhibition of PSA expression compared to the control group in 24 hours ([3]; 0.2 μM): 34%
Percent inhibition of PSA expression compared to the control group in 48 hours ([3]; 0.2 μM): 45%
Percent inhibition of PSA expression compared to the control group in 8 hours ([3]; 1 μM): 0%
Percent inhibition of PSA expression compared to the control group in 24 hours ([3]; 1 μM): 44%
Percent inhibition of PSA expression compared to the control group in 48 hours ([3]; 1 μM): 68%
Percent inhibition of PSA expression compared to the control group in 8 hours ([3]; 5.0 μM): 0%
Percent inhibition of PSA expression compared to the control group in 24 hours ([3]; 5.0 μM): 54%
Percent inhibition of PSA expression compared to the control group in 48 hours ([3]; 5.0 μM): 76%
PSA expression ([3]; time course): reduced PSA and TMPRSS2 expression in the cells relative to the control set at the 24 hr and 48 hr time points
Proliferation (% untreated control) in LNCaP with 0.08 μM MDV-3100 [4, 5]: 74 % untreated control
Proliferation (% untreated control) in LNCaP with 0.4 μM MDV-3100 [4, 6]: 48 % untreated control
